Laboratory results as given in paper PMC4004252 (Journal of the American Chemical Society, 2014).

Assays:
ctDNA = ctDNA absorption spectroscopy titration of ethidium bromide; assay type: binding, calf; settings: value for EB in main text
Top1 [1] = molecular target: T1, Top1 (Homo sapiens, UniProt P11387); assay type: biochemical
T1 sequence (P11387 1-765): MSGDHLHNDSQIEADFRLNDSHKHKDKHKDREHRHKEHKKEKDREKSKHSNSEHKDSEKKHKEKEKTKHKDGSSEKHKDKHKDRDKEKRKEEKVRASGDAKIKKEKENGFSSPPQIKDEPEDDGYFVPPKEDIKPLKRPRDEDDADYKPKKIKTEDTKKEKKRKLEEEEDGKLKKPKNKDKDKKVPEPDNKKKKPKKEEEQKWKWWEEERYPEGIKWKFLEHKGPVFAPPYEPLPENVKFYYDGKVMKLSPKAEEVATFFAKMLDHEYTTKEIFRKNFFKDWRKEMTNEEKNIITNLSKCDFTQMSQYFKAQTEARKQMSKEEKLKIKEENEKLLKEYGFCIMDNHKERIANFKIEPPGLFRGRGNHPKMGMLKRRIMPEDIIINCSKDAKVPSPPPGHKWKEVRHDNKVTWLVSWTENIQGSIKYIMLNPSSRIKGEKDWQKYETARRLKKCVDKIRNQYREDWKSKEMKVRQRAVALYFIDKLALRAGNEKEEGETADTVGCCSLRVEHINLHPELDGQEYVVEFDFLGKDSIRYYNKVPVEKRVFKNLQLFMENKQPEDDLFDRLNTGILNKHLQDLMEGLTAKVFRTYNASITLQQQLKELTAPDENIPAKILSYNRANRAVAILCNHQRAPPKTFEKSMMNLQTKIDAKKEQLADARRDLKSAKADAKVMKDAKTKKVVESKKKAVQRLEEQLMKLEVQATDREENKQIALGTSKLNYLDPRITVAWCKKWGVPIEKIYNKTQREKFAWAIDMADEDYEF

[2] = tested on: relaxed pHOT1 plasmid DNA; experiment: DNA unwinding assay, relaxed pHOT1 as substrate; assay type: biochemical; settings: 10 units Top1, 37 °C
Top1 [3] = molecular target: T1, Top1; experiment: Standard Top1 scDNA relaxation assay; assay type: biochemical

SMILES: CC[n+]1c(-c2ccccc2)c2cc(N)ccc2c2ccc(N)cc21 [EB, ethidium bromide]
- KA, ctDNA affinity constant (ctDNA): 5(1) × 10^6 M^–1 bp

SMILES: O=C1c2c(O)ccc(O)c2C(=O)c2c(NCCNCCO)ccc(NCCNCCO)c21 [MTX, mitoxantrone]
- dose at which switch to catalytic inhibition of Top1 occurs (Top1 [1]): 1 to 10 µM
- PicoGreen relative fluorescence readout (Top1 [1]; doses of 0.1 and 1 μM): positive

SMILES: COc1cc(NS(C)(=O)=O)ccc1Nc1c2ccccc2nc2ccccc12 [m-AMSA, 4′-(9-acridinylamino)methanesulfon-m-anisidide]
- concentration giving the Gaussian distribution of DNA topoisomers [2]: 50 µM
- dose giving complete inhibition of the enzyme (Top1 [3]): 50 µM
